Measurements published in US12091393B2, “Small molecule vaccine adjuvant for enhancing or prolonging immune response” (The Regents of the University of California, priority 2018, dated 2024).
Entries after “also recorded” stand apart in the source; their conditions may differ. Like-named read-outs stand apart in the source and are kept apart here.

Key:
THP-1 cells [1] = experiment: RNA seq in THP-1 cells; assay type: cell-based
BMDCs [2] = experiment: Gene expression in BMDCs; assay type: cell-based
NF-κB [3] = experiment: Measurement of NF-κB activation using THP1-Blue NF-κB cells (SEAP); assay type: cell-based; settings: for activity at 5 µM: 20 h, two point normalized, compound 1 as 200%; for NF-κB activity (SAR discussion, in words): evaluated in both the presence and absence of LPS
JNK, P38 and Erk1/2 = experiment: MAPK activation in THP-1 cells; assay type: cell-based; settings: #42 alone
BMDCs [4] = experiment: Cytotoxicity / cell viability of BMDCs; assay type: cell-based
THP-1 cells [5] = experiment: Cell viability assay (MTT); assay type: cell-based; settings: compound 5 μM alone, 18 h, normalized to DMSO as 100%
Outline: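 THP-1 cells in RPMI/10% FBS got compound at a final 5 μM (0.05% DMSO) for 18 h. MTT (0.5 mg/mL) was then added for 4 to 6 h, followed by SDS/HCl lysis overnight. Absorbance was read at 570 nm against 650 nm reference.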

THP-1 cells [6] = experiment: Co-stimulatory marker expression in THP-1 cells; assay type: cell-based
BMDCs [7] = experiment: Cytokine production in BMDCs; assay type: cell-based; settings: for cytokine production (mIL-12, mIL-6, mTNFalpha) induced by Dectin1: with Dectin1 (FIGS. 4A-4C)
NF-kB = NF-kB phosphorylation and nuclear localization in THP-1 cells (ICC and WB); assay type: cell-based
BMDCs [8] = experiment: Co-stimulatory marker expression in BMDCs; assay type: cell-based; settings: for Co-stimulatory markers: CD40 and CD86 induce by LPS or MPLA: BMDCs
NF-κB [9] = experiment: cell-based NF-κB FRET assay; settings: for NF-κB FRET Compound + LPS % Activation: two point normalized, compound 1 as 200%, LPS (10 ng/mL) as 100%
Source text: Site A was assigned the 4-substituent of thiazole ring, site B was the thiazole ring itself, site C was the central amide bond in the structure, site D was the benzene ring bearing 1,4-carboxyl and sulfamoyl group, site E was the sulfonamide functional group and site F was the amide substituent on the sulfamoyl group.

[10] = compound 5 μM + LPS, LPS (10 ng/mL) as 100%, read-out: NF-κB SEAP Compound + LPS % Activation
[11] = compound 5 μM alone, LPS or DMSO as 100%, read-out: NF-κB SEAP Compound alone % Activation

Structure (SMILES) | activity at 5 µM (NF-κB [3]; [10]) [%] | activity at 5 µM (NF-κB [3]; [11]) [%] | MTT Compound alone % Viability (THP-1 cells [5]) [%] | NF-κB FRET Compound + LPS % Activation (NF-κB [9]) [%] | NF-κB activity (SAR discussion, in words) (NF-κB [3]) | also measured
Cc1ccc(C)c(-c2csc(NC(=O)c3ccc(S(=O)(=O)N4CCCCC4)cc3)n2)c1 [Compound 1, N-(4-(2,5-dimethylphenyl)thiazol-2-yl)-4-(piperidin-1-ylsulfonyl)benzamide] | 200 | 200 | 102.81 | 200.00 | – | RNA seq (THP-1 cells [1]): Induction of CSF-1 and LIF; reactogenicity (Reactogenicity (FIG. 21)): not reactogenic; Gene expression: CD40, IL-12. CXCL5 expression (BMDCs [2]; BMDCs): Enhancement of CD40, IL-12.; CD40, CXCL10 and IL-12 gene expression kinetics (BMDCs [2]; by 10 hours after exposure, BDMCs, LPS and compound 42 (FIG. 7)): upregulated; MAPK activation: phosphorylation of JNK, P38 and Erk1/2 (JNK, P38 and Erk1/2; listed as 42): induced; MAPK activation: phosphorylation of JNK, P38 and Erk1/2 (JNK, P38 and Erk1/2; listed as #42): phosphorylation of JNK, P38 and Erk1/2; Cytotoxicity (BMDCs [4]): Enhancement of cell viability; Co-stimulatory markers: CD40 and CD86 induce by LPS (THP-1 cells [6]): Enhancement of CD40 and CD86; cytokine production (mIL-12, mIL-6, mTNFalpha) induced by Dectin1 (BMDCs [7]; listed as 42): not enhanced; also recorded: not by Dectin1; cytokine production (mIL-12, mIL-6, mTNFalpha) induced by Dectin1 (BMDCs [7]; listed as #42): not by Dectin1; cytokine production induced by TLR ligands (BMDCs [7]; with a TLR ligand (FIGS. 3-4)): enhanced; phosphorylation of NFkB, combination of LPS and compound (NF-kB; LPS + compound 42): synergistic; NF-kB phosphorylation and nuclear localization induced by LPS (ICC and WB) (NF-kB; THP-1 cells, with LPS, listed as #42): prolonged; also recorded: Prolongation of NF-kB; phosphorylation of NF-kB by compound alone (NF-kB; compound 42 alone (FIGS. 9A-9C)): induced and sustained; co-stimulatory molecule expression induced by LPS (BMDCs [8]; BDMCs, LPS (FIGS. 5A-5G)): enhances; co-stimulatory molecule expression induced by MPLA (BMDCs [8]; BDMCs, MPLA (FIGS. 6A-6F)): enhances; Co-stimulatory markers: CD40 and CD86 induce by LPS or MPLA (BMDCs [8]; listed as 42): enhanced; Co-stimulatory markers: CD40 and CD86 induce by LPS or MPLA (BMDCs [8]; listed as #42): enhanced; also recorded: Enhancement of CD40 and CD86; enhancement of NF-κB activity by LPS at 12 h (confirmatory kinetic screening) (NF-κB [9]; in presence of LPS, 12 h incubation): most potent
CC(=O)N1CCN(S(=O)(=O)c2ccc(C(=O)Nc3nc(-c4cc(C)ccc4C)cs3)cc2)CC1 [Compound 58j, 4-((4-acetylpiperazin-1-yl)sulfonyl)-N-(4-(2,5-dimethylphenyl)thiazol-2-yl)benzamide] | 101 | 101 | 72.09 | 90.73 | inactive | –
CCCN1CCN(S(=O)(=O)c2ccc(C(=O)Nc3nc(-c4cc(C)ccc4C)cs3)cc2)CC1 [Compound 58k, N-(4-(2,5-dimethylphenyl)thiazol-2-yl)-4-((4-propylpiperazin-1-yl)sulfonyl)benzamide] | 110 | 101 | 50.85 | 100.84 | inactive | –
CCCC1CCN(S(=O)(=O)c2ccc(C(=O)Nc3nc(-c4cc(C)ccc4Br)cs3)cc2)CC1 [Compound 59, N-(4-(2-bromo-5-methylphenyl)thiazol-2-yl)-4-((4-propylpiperidin-1-yl)sulfonyl)benzamide] | 298 | 484 | 98.59 | 211.88 | very potent and showed better potency than compound 1 | –
CCCC#Cc1sc(NC(=O)c2ccc(S(=O)(=O)N3CCC(CCC)CC3)cc2)nc1-c1cc(C)ccc1C [Compound 61, N-(4-(2,5-dimethylphenyl)-5-(pent-1-yn-1-yl)thiazol-2-yl)-4-((4-propylpiperidin-1-yl)sulfonyl)benzamide] | 189 | 119 | 102.98 | 207.19 | very potent and showed better potency than compound 1 | –
CCCC#Cc1sc(NC(=O)c2ccc(S(=O)(=O)N3CCCCC3)cc2)nc1-c1cc(C)ccc1Br [Compound 64, N-(4-(2-bromo-5-methylphenyl)-5-(pent-1-yn-1-yl)thiazol-2-yl)-4-(piperidin-1-ylsulfonyl)benzamide] | 287 | 348 | 101.42 | 196.14 | very potent and showed better potency than compound 1 | –
Cc1ccc(N=[N+]=[N-])cc1-c1csc(NC(=O)c2ccc(S(=O)(=O)N3CCCCC3)cc2)n1 [Compound 67, N-(4-(5-azido-2-methylphenyl)thiazol-2-yl)-4-(piperidin-1-ylsulfonyl)benzamide] | 159 | 177 | 90.50 | 168.96 | retained activity | –
Cc1ccc(N=[N+]=[N-])c(-c2csc(NC(=O)c3ccc(S(=O)(=O)N4CCCCC4)cc3)n2)c1 [Compound 70, N-(4-(2-azido-5-methylphenyl)thiazol-2-yl)-4-(piperidin-1-ylsulfonyl)benzamide] | 97.3 | 101 | 77.84 | 70.93 | inactive | –
C#CCNS(=O)(=O)c1ccc(C(=O)Nc2nc(-c3cc(C)ccc3C)cs2)cc1 [Compound 72a, N-(4-(2,5-dimethylphenyl)thiazol-2-yl)-4-(N-(prop-2-yn-1-yl)sulfamoyl)benzamide] | 102 | 99.2 | 87.46 | 121.36 | lost their activity | –
C#CCN(CC)S(=O)(=O)c1ccc(C(=O)Nc2nc(-c3cc(C)ccc3C)cs2)cc1 [Compound 72b, N-(4-(2,5-dimethylphenyl)thiazol-2-yl)-4-(N-ethyl-N-(prop-2-yn-1-yl)sulfamoyl)benzamide] | 109 | 105 | 81.42 | 129.85 | lost their activity | –
C#CCN(CCC)S(=O)(=O)c1ccc(C(=O)Nc2nc(-c3cc(C)ccc3C)cs2)cc1 [Compound 72c, N-(4-(2,5-dimethylphenyl)thiazol-2-yl)-4-(N-(prop-2-yn-1-yl)-N-propylsulfamoyl)benzamide] | 122 | 103 | 84.00 | 133.88 | lost their activity | –
C#CC1CCN(S(=O)(=O)c2ccc(C(=O)Nc3nc(-c4cc(C)ccc4C)cs3)cc2)CC1 [Compound 72d, N-(4-(2,5-dimethylphenyl)thiazol-2-yl)-4-((4-ethynylpiperidin-1-yl)sulfonyl)benzamide] | 152 | 112 | 83.27 | 123.22 | active | –
Cc1ccc(C)c(-c2csc(NC(=O)c3ccc(S(=O)(=O)N4CCC5(CC4)N=N5)cc3)n2)c1 [Compound 72e, 4-((1,2,6-triazaspiro[2.5]oct-1-en-6-yl)sulfonyl)-N-(4-(2,5-dimethylphenyl)thiazol-2-yl)benzamide] | 168 | 144 | 84.40 | 168.82 | active | –
C#CC1CCN(S(=O)(=O)c2ccc(C(=O)Nc3nc(-c4cc(N=[N+]=[N-])ccc4C)cs3)cc2)CC1 [Compound 73, N-(4-(5-azido-2-methylphenyl)thiazol-2-yl)-4-((4-ethynylpiperidin-1-yl)sulfonyl)benzamide] | 398 | 363 | 84.53 | 197.10 | – | –
